Results: US20210238169A1, “PROCESS FOR PREPARING A COMPOUND OF FORMULA (XIII)” (PULMOCIDE LIMITED, priority 2014, published 2021)
≈ marks a conversion by molar mass, not a printed value. Read-outs that look alike come from different tables or passages of the source.

What was measured:
[1] = tested on: Aspergillus fumigatus isolates; assay: Broth microdilution assay of planktonic fungal growth (modified EUCAST); format: cell-based; settings: Aspergillus fumigatus
Protocol: This assay was conducted using a modified method published by EUCAST (Rodriguez-Tudela et al., 2008). Spores of Aspergillus fumigatus (NCPF2010, NCPF7010 (Methionine 220 mutation), NCPF7099 (Glycine G54 mutation) from Public Health England, Wiltshire; TR34/L98H mutants from St Louis Hospital, Paris, France) were cultured in Sabouraud dextrose agar for 3 days. A stock spore suspension was prepared from a Sabouraud dextrose agar culture by washing with PBS-tween (10 mL; PBS containing 0.05% Tween-20, 100 U/mL Penicillin and 100 U/mL Streptomycin). The spore count was assessed using a Neubauer haemocytometer and then adjusted to 10^6 spores/mL with PBS. A working suspension of spores (2×10^5 spores/mL) was prepared in filter sterilised, BSA MOPS RPMI-1640 (50 mL; RPMI-1640 containing 2 mM L-glutamine, 0.5% BSA, 2% glucose, 0.165 M MOPS, buffered to pH 7 with NaOH). For the assay, BSA MOPS RPMI-1640 (50 μL/well) was added throughout the 384-well plate (Catalogue number 353962, BD Falcon, Oxford, UK) first. Test compounds (0.5 μL DMSO solution) were then added in quadruplicate using an Integra VIAFLO 96 (Integra, Zizers, Switzerland), and mixed well using a plate mixer. Subsequently 50 μL of the working spore suspension prepared above was added to all wells except non-spore control wells. For non-spore control wells, BSA MOPS-RPMI solution (50 μL/well) was added instead. The plate was covered with a plastic lid, and incubated (35° C. with ambient air) for 48 hr. The OD of each well at 530 nm was determined using a multi-scanner (Clariostar: BMG, Buckinghamshire, UK). The percentage inhibition for each well was calculated and the MIC50, MIC75 and MIC90 values were calculated from the concentration-response curve generated for each test compound.

[2] = Fungus panel screening, CLSI broth microdilution; format: cell-based, Aspergillus pullulans; settings: Aspergillus
Protocol: (§1) Fungus panel screening was conducted by Eurofins Panlabs Inc. The MIC and MIC50 values of the test articles were determined following the guidelines of the Clinical and Laboratory Standards Institute, broth microdilution methods for yeast (CLSI M27-A2), (CLSI, 2002) and for filamentous fungi (CLSI M38-A), (CLSI, 2008).

[3] = tested on: Aspergillus fumigatus; assay: Aspergillus fumigatus infection of BEAS2B bronchial epithelial cells (GM in supernatant); format: cell-based
Protocol: BEAS2B cells were seeded in 96-well plates (100 μL; 30,000 cells/well; Catalogue No 3596, Sigma Aldrich, Dorset, UK) in 10% FBS RPMI-1640 and were then incubated (37° C., 5% CO2) for one day before experimentation. Test compounds (0.5 μL DMSO solution) or vehicle (DMSO) were added to each well to give a final DMSO concentration of 0.5%. BEAS2B cells were incubated with test compounds for 1 hr (35° C., 5% CO2) before infection with Aspergillus fumigatus (20 μL; Public Health England) conidia suspension (0.5×10^5/ml in 10% FBS RPMI-1640). The plate was incubated for 24 hr (35° C., 5% CO2). Supernatant (50 μL) was collected and transferred to a PCR plate (Catalogue No L1402-9700, Starlab, Milton Keynes, UK), which was frozen (−20° C.) until use. After thawing, supernatant (5 μL) was diluted 1:20 by adding R7-PBS solution (95 μL; 1:4 R7 to PBS; Bio-Rad Laboratories, Redmond, Wash., USA). GM levels in these samples (50 μL) were measured using Platelia GM-EIA kits (Bio-Rad Laboratories, Redmond, Wash., USA). The percentage inhibition for each well was calculated and the IC50 value was calculated from the concentration-response curve generated for each test compound.

[4] = Cell viability: resazurin assay; format: cell-based, human; settings: human, n = 1-5
Protocol: BEAS2B cells were seeded in 384-well plates (100 μL; 3000/well/; BD Falcon, Catalogue No 353962) in RPMI-LHC8 (RPMI-1640 and LHC8 media combined in equal proportions) one day before experimentation. For cell-free control wells, RPMI-LHC8 (100 μL) was added. Test compounds (0.5 μL of a DMSO solution) were added to give a final DMSO concentration of 0.5% using an Integra VIAFLO 96 (Integra, Zizers, Switzerland). BEAS2B cells were incubated with each test compound for 1 day (37° C./5% CO2 in RPMI-LHC8). After addition of resazurin stock solution (5 μL, 0.04%) the plates were incubated for a further 4 hr (37° C./5% CO2). The fluorescence of each well at 545 nm (excitation) and 590 nm (emission) was determined using a multi-scanner (Clariostar: BMG Labtech). The percentage loss of cell viability was calculated for each well relative to vehicle (0.5% DMSO) treatment. Where appropriate, a CC50 value was calculated from the concentration-response curve generated from the concentration-response curve for each test compound.

[5] = tested on: Candida glabrata; assay: Fungus panel screening, CLSI broth microdilution; format: cell-based; settings: Nakaseomyces glabratus; for MIC: read-out: MIC100
Protocol: as §1

[6] = tested on: Trichophyton rubrum; assay: Fungus panel screening, CLSI broth microdilution; format: cell-based; settings: strain ATCC10218, visual inspection (CLSI); for MIC: read-out: MIC100
Protocol: as §1

[7] = tested on: Penicillium chrysogenum; assay: Fungus panel screening, CLSI broth microdilution; format: cell-based; settings: strain ATCC9480, visual inspection (CLSI); for MIC: read-out: MIC100
Protocol: as §1

[8] = tested on: Candida albicans; assay: Fungus panel screening, CLSI broth microdilution; format: cell-based; settings: for MIC50 / MIC: Candida albicans; for MIC: read-out: MIC100
Protocol: as §1

[9] = tested on: Chaetomium globosum; assay: Fungus panel screening, CLSI broth microdilution; format: cell-based; settings: strain ATCC44699, visual inspection (CLSI); for MIC: read-out: MIC100
Protocol: as §1

[10] = tested on: Rhizopus oryzae; assay: Fungus panel screening, CLSI broth microdilution; format: cell-based; settings: Rhizopus arrhizus, strain ATCC11145, visual inspection (CLSI); for MIC: read-out: MIC100
Protocol: as §1

[11] = tested on: Aspergillus fumigatus isolates; assay: Broth microdilution assay of planktonic fungal growth (modified EUCAST); format: cell-based; settings: Aspergillus fumigatus; isolate NCPF7100, broth microdilution; read-out: MIC75
[12] = isolate NCPF7099, broth microdilution, read-out: MIC75
[13] = strain ATCC9348, visual inspection (CLSI), read-out: MIC50
[14] = strain ATCC9348, visual inspection (CLSI), read-out: MIC100
[15] = strain ATCC36583, visual inspection (CLSI)
[16] = strain R363, visual inspection (CLSI)
[17] = ATCC10231, strain ATCC10231, visual inspection (CLSI)
[18] = strain 20183.073, visual inspection (CLSI)
[19] = strain 20186.025, visual inspection (CLSI)
[20] = strain 20240.047, visual inspection (CLSI)
[21] = strain ATCC10231, visual inspection (CLSI)

| Compound | MIC ([1]; read-out: MIC75) | MIC [1, 12] | MIC50 [3] | MIC50 [5, 15] | MIC [5, 15] | MIC50 [5, 16] | MIC [5, 16] | MIC50 [6] | MIC [6] | MIC50 [7] | MIC [7] | MIC50 [8, 17] | MIC50 [8, 18] | MIC50 [8, 19] | MIC50 [8, 20] | MIC [8, 20] | MIC [8, 21] | MIC50 [9] | MIC [9] | MIC50 [10] | other results |
| --- | --- | --- | --- | --- | --- | --- | --- | --- | --- | --- | --- | --- | --- | --- | --- | --- | --- | --- | --- | --- | --- |
| CC[C@@H]([C@H](C)O)n1ncn(-c2ccc(N3CCN(c4ccc(OC[C@@H]5CO[C@@](Cn6cncn6)(c6ccc(F)cc6F)C5)cc4)CC3)cc2)c1=O [Posaconazole] | 0.15 µM (≈ 0.105 µg/mL) | 0.112 µM (≈ 0.0785 µg/mL) | 4.48 nM (≈ 0.00314 µg/mL) | 0.5 µg/mL (≈ 0.713 µM) | > 8 µg/mL | 0.5 µg/mL (≈ 0.713 µM) | > 8 µg/mL | < 8 ng/mL | 0.031 µg/mL (≈ 0.0442 µM) | 0.063 µg/mL (≈ 0.0899 µM) | 0.13 µg/mL (≈ 0.186 µM) | 0.13 µg/mL (≈ 0.186 µM) | 0.25 µg/mL (≈ 0.357 µM) | > 8 µg/mL | 0.031 µg/mL (≈ 0.0442 µM) | > 8 µg/mL | > 8 µg/mL | 0.13 µg/mL (≈ 0.186 µM) | 0.25 µg/mL (≈ 0.357 µM) | 0.13 µg/mL (≈ 0.186 µM) | MIC50 [2, 13]: 0.25 µg/mL (≈ 0.357 µM); MIC [2, 14]: 1 µg/mL (≈ 1.43 µM); CC50 at 1 day ([4]; BEAS2B cells): > 14.3 µM; MIC100 [8, 19]: >8.0 µg/mL; MIC [10]: > 8 µg/mL; MIC [11]: 0.0715 µM (≈ 0.0501 µg/mL) |
| C[C@@H](c1ncncc1F)[C@](O)(Cn1cncn1)c1ccc(F)cc1F [Voriconazole] | > 2.86 µM | 0.0967 µM (≈ 0.0338 µg/mL) | 154 nM (≈ 0.0538 µg/mL) | 0.25 µg/mL (≈ 0.716 µM) | > 8 µg/mL | > 8 µg/mL | > 8 µg/mL | < 8 ng/mL | 0.063 µg/mL (≈ 0.18 µM) | 1 µg/mL (≈ 2.86 µM) | 2 µg/mL (≈ 5.73 µM) | 0.25 µg/mL (≈ 0.716 µM) | 4 µg/mL (≈ 11.5 µM) | > 8 µg/mL | 0.031 µg/mL (≈ 0.0887 µM) | > 8 µg/mL | > 8 µg/mL | 0.5 µg/mL (≈ 1.43 µM) | 1 µg/mL (≈ 2.86 µM) | 8 µg/mL (≈ 22.9 µM) | MIC50 ([2]; ATCC9348): > 8 µg/mL; MIC ([2]; ATCC9348, read-out: MIC100): > 8 µg/mL; CC50 at 1 day ([4]; read-out: BEAS2B Cell Viability CC50): > 28.6 µM; MIC100 [8, 19]: >8.0 µg/mL; MIC [10]: > 8 µg/mL; MIC [11]: 0.596 µM (≈ 0.208 µg/mL) |
| Cc1cc(N2CCN(c3ccc(C(=O)Nc4ccc(F)cc4)cc3)CC2)ccc1OC[C@@H]1CO[C@@](Cn2cncn2)(c2ccc(F)cc2F)C1 [Compound (I), 4-(4-(4-(((3R,5R)-5-((1H-1,2,4-triazol-1-yl)methyl)-5-(2,4-difluorophenyl)tetrahydrofuran-3-yl)methoxy)-3-methylphenyl)piperazin-1-yl)-N-(4-fluorophenyl)benzamide] | 0.0567 µM (≈ 0.0387 µg/mL) | 0.0165 µM (≈ 0.0113 µg/mL) | 5.43 nM (≈ 0.00371 µg/mL) | 0.5 µg/mL (≈ 0.732 µM) | > 8 µg/mL | 0.5 µg/mL (≈ 0.732 µM) | > 8 µg/mL | < 8 ng/mL | 0.031 µg/mL (≈ 0.0454 µM) | 0.031 µg/mL (≈ 0.0454 µM) | > 8 µg/mL | 0.13 µg/mL (≈ 0.19 µM) | 0.5 µg/mL (≈ 0.732 µM) | > 8 µg/mL | 0.031 µg/mL (≈ 0.0454 µM) | > 8 µg/mL | > 8 µg/mL | 0.063 µg/mL (≈ 0.0923 µM) | > 8 µg/mL | 0.063 µg/mL (≈ 0.0923 µM) | MIC ([1]; NCPF2010, read-out: MIC75): 0.0136 µM (≈ 0.00929 µg/mL); MIC50 [2, 13]: > 8 µg/mL; MIC [2, 14]: > 8 µg/mL; CC50 at 1 day ([4]; BEAS2B cells): > 12.2 µM; MIC [10]: 2 µg/mL (≈ 2.93 µM); MIC [11]: 0.0197 µM (≈ 0.0135 µg/mL) |
